{
  "source": "paper PMC8355244",
  "about": "“A fragment-based approach identifies an allosteric pocket that impacts malate dehydrogenase activity” (Communications Biology, 2021)",
  "key": {"[1]": {"test": "Precipitation / turbidity of compound in assay buffer (600 nm)", "assay_type": "physicochemical", "conditions": "aqueous assay buffer", "procedure": "1.3 µL of derivatives of 4-phenylthiazol-2-amine in 100% DMSO were mixed with 237.7 µL of a mastermix of WT PfMDH previously incubated with NAD+. The final compound concentration used in this screening was 500 µM in the presence of 0.5% (v/v) DMSO. The microplate was sealed with silver foil for 1-h incubation at 25–35 °C. Finally, reactions in both the samples and control wells were started upon the addition of 13.0 µL of 5 mM malate). At the end of the experiments, the reaction of the plate was spectrophotometrically assayed at 600 nm in order to identify turbidity due to the low solubility of the compound. All measurements were performed in duplicate."}, "PfMDH [2]": {"biological_target": "T1, PfMDH (Plasmodium falciparum, UniProt Q6VVP7)", "T1 construct": "The full-length WT PfMDH gene was cloned into pETM-13; made in house; host or cells: E. coli Rosetta 2 (DE3) pLysS", "T1 sequence (Q6VVP7 entry or part of it)": "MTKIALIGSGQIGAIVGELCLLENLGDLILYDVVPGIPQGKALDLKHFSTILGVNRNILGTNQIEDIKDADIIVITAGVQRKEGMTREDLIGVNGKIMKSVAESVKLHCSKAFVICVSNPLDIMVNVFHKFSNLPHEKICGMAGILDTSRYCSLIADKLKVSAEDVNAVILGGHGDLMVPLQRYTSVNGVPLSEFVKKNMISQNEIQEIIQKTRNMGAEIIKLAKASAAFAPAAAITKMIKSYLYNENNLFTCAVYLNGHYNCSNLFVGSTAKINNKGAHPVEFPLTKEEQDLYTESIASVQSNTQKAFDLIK", "test": "Kinetics experiment with varying L-malate, substrate inhibition model", "assay_type": "biochemical", "set-up": "unit not given here", "conditions": "malate 5 mM, replicates", "procedure": "(§1) The oxidation of malate to oxaloacetate was assayed spectrophotometrically in flat-bottomed Corning 96-well microplates in a total volume of 250.0 µl in 50 mM glycine buffer pH 10.2[24] with an additional 400 mM NaCl for protein stability. The increase of absorbance at 340 nm was recorded in kinetic mode using a Tecan Spark multimode microplate reader at 298 K. A mastermix of 50 mM NAD+ and 44 μM PfMDH was used for both the screening and kinetics experiments. The final concentration of protein and cofactor were […], respectively. Positive control groups were set (absence of compound) in the same plate as the treated group. The absorbance from the background noise was subtracted from the data and then a linear regression model was employed in order to get the line slope from the first 5 min of the reaction. The percentage of enzymatic activity has been calculated as described by Eq. (1)1 enzymeactivity(%)=slopetreated/slopepositivecontrol*100\nKinetics experiments were performed by mixing 1.3 µL of compound stock solutions from 12.5 and 25 mM of 4PA in 100% DMSO with 223.8 µL mastermix of PfMDH previously incubated in ice with 3 mM NAD+ for 30 min. […] Kinetic constants Km (mM) and Vmax (U * mg^−^1) and Ki (mM) were quantified with GraphPad Prism version 8.0 according to the substrate inhibition Eq. (2)[52].2 Y=Vmax*X/(Km+X^*(1+X/Ki))"}, "PfMDH [3]": {"biological_target": "T1, PfMDH", "test": "Kinetics experiment with varying L-malate, substrate inhibition model", "assay_type": "biochemical", "set-up": "key to Ki (best-fit value, substrate inhibition model): Ki in mM; key to Vmax (best-fit value): Vmax in U/mg; 4PA kinetics raw data (rate): unit not given here", "conditions": "for Ki (best-fit value, substrate inhibition model) / Vmax (best-fit value): pH 10.2, Supplementary Table 6; for 4PA kinetics raw data (rate): replicates"}, "WT PfMDH": {"biological_target": "T2, WT PfMDH (Plasmodium falciparum, UniProt Q6VVP7)", "T2 construct": "The full-length WT PfMDH gene was cloned into pETM-13; made in house; host or cells: E. coli Rosetta 2 (DE3) pLysS", "T2 sequence (Q6VVP7 entry or part of it)": "as above", "test": "4PA dose-response inhibition of PfMDH", "assay_type": "biochemical", "conditions": "for Slope / Response (Delta Abs[340 nm]/min): replicates", "procedure": "as §1\nWhile the fragment initially discovered was 4-(3,4-difluorophenyl) thiazol-2-amine, we decided to perform enzymatic and kinetic assays using a similar substructure 4-phenylthiazol-2-amine. 2× fold dilutions from a 200 mM stock solution of the compound in 100% DMSO was prepared for dose–response experiments. 3.3 µL of compound (DMSO in the case of positive control) were mixed with 233.9 µL mastermix of WT PfMDH previously incubated with 3 mM NAD + using a multichannel pipette. The final conditions tested were a maximum of 2.5 mM of 4PA at 1.32% (v/v) final DMSO concentration. The microplate was incubated for 15 min at 25.35 °C and the reaction started with the addition of 13.0 µL of 5 mM L-malate."}},
  "note": "“And” between values parts separate entries of the source, which are not always exact repeats. Identical values can stand only once. Like-named read-outs stand apart in the source and are kept apart here.",
  "data": [
    {"smiles": "Nc1nc(-c2ccccc2)cs1", "note": "[4PA, 4-phenylthiazol-2-amine]", "values": [
      {"measurement": "solubility (in words)", "setting": "[1]", "result": "slightly more soluble than 4DT"},
      {"measurement": "4PA kinetics raw data (rate)", "setting": "PfMDH [2]; PfMDH + 63 uM", "result": "0.0233 and 0.02526 and 0.02238"},
      {"measurement": "4PA kinetics raw data (rate)", "setting": "PfMDH [2]; PfMDH + 125 uM", "result": "0.01868 and 0.01853 and 0.02184"},
      {"measurement": "Ki (best-fit value, substrate inhibition model)", "setting": "PfMDH [3]; 63 μM", "result": "63.00 ± 31.8"},
      {"measurement": "Vmax (best-fit value)", "setting": "PfMDH [3]; 63 μM", "result": "645.7 ± 29.0"},
      {"measurement": "Ki (best-fit value, substrate inhibition model)", "setting": "PfMDH [3]; 125 μM", "result": "72.93 ± 41.9"},
      {"measurement": "Vmax (best-fit value)", "setting": "PfMDH [3]; 125 μM", "result": "630.2 ± 28.5"},
      {"measurement": "4PA kinetics raw data (rate)", "setting": "PfMDH [3]; PfMDH + 63 uM, malate 0.078125 mM", "result": "0.0098 and 0.01006 and 0.00834"},
      {"measurement": "4PA kinetics raw data (rate)", "setting": "PfMDH [3]; PfMDH + 63 uM, malate 0.15625 mM", "result": "0.01266 and 0.01336 and 0.01325"},
      {"measurement": "4PA kinetics raw data (rate)", "setting": "PfMDH [3]; PfMDH + 63 uM, malate 0.3125 mM", "result": "0.01621 and 0.01654 and 0.01602"},
      {"measurement": "4PA kinetics raw data (rate)", "setting": "PfMDH [3]; PfMDH + 63 uM, malate 0.625 mM", "result": "0.02019 and 0.02009 and 0.02113"},
      {"measurement": "4PA kinetics raw data (rate)", "setting": "PfMDH [3]; PfMDH + 63 uM, malate 1.25 mM", "result": "0.02141 and 0.02369 and 0.02088"},
      {"measurement": "4PA kinetics raw data (rate)", "setting": "PfMDH [3]; PfMDH + 63 uM, malate 2.5 mM", "result": "0.02622 and 0.02453 and 0.02721"},
      {"measurement": "4PA kinetics raw data (rate)", "setting": "PfMDH [3]; PfMDH + 63 uM, malate 10 mM", "result": "0.02549 and 0.02349 and 0.01973"},
      {"measurement": "4PA kinetics raw data (rate)", "setting": "PfMDH [3]; PfMDH + 125 uM, malate 0.078125 mM", "result": "0.00804 and 0.006868 and 0.007099"},
      {"measurement": "4PA kinetics raw data (rate)", "setting": "PfMDH [3]; PfMDH + 125 uM, malate 0.15625 mM", "result": "0.01089 and 0.01117 and 0.0101"},
      {"measurement": "4PA kinetics raw data (rate)", "setting": "PfMDH [3]; PfMDH + 125 uM, malate 0.3125 mM", "result": "0.01419 and 0.01394 and 0.01404"},
      {"measurement": "4PA kinetics raw data (rate)", "setting": "PfMDH [3]; PfMDH + 125 uM, malate 0.625 mM", "result": "0.01376 and 0.01789 and 0.01385"},
      {"measurement": "4PA kinetics raw data (rate)", "setting": "PfMDH [3]; PfMDH + 125 uM, malate 1.25 mM", "result": "0.02005 and 0.02063 and 0.0175"},
      {"measurement": "4PA kinetics raw data (rate)", "setting": "PfMDH [3]; PfMDH + 125 uM, malate 2.5 mM", "result": "0.02038 and 0.02019 and 0.02077"},
      {"measurement": "4PA kinetics raw data (rate)", "setting": "PfMDH [3]; PfMDH + 125 uM, malate 10 mM", "result": "0.01925 and 0.01826 and 0.01944"},
      {"measurement": "Ki change vs control", "setting": "PfMDH [3]; in presence of 63 μM compound", "result": 5, "unit": "fold"},
      {"measurement": "Ki change vs control", "setting": "PfMDH [3]; in presence of 125 μM compound", "result": 6, "unit": "fold"},
      {"measurement": "Vmax", "setting": "PfMDH [3]; in the presence of 63 μM compound, control 967.8 ± 99.0", "result": "645.7 ± 29.0", "unit": "U mg^−1"},
      {"measurement": "Vmax", "setting": "PfMDH [3]; in the presence of 125 μM compound", "result": "630.2 ± 28.5", "unit": "U mg^−1"},
      {"measurement": "mechanism of the inhibition", "setting": "PfMDH [3]; vs malate", "result": "non-competitive"},
      {"measurement": "IC50", "setting": "WT PfMDH; 5 mM L-malate, 3 mM NAD+, pH 10.2, read-out: IC50", "result": "1120 ± 30", "unit": "µM"},
      {"measurement": "Slope", "setting": "WT PfMDH; Dose 1e-6 M", "result": "0.04587 and 0.04675 and 0.04799"},
      {"measurement": "Slope", "setting": "WT PfMDH; Dose 0.000237161 M", "result": "0.03425 and 0.02991 and 0.02497"},
      {"measurement": "Slope", "setting": "WT PfMDH; Dose 0.000332026 M", "result": "0.03311 and 0.03278 and 0.02964"},
      {"measurement": "Slope", "setting": "WT PfMDH; Dose 0.000464836 M", "result": "0.03179 and 0.02952 and 0.02569"},
      {"measurement": "Slope", "setting": "WT PfMDH; Dose 0.000650771 M", "result": "0.0287 and 0.02683 and 0.02888"},
      {"measurement": "Slope", "setting": "WT PfMDH; Dose 0.000911079 M", "result": "0.02984 and 0.02623 and 0.02457"},
      {"measurement": "Slope", "setting": "WT PfMDH; Dose 0.00127551 M", "result": "0.01897 and 0.02591 and 0.01942"},
      {"measurement": "Slope", "setting": "WT PfMDH; Dose 0.00178571 M", "result": "0.01091 and 0.01205 and 0.0179"},
      {"measurement": "Slope", "setting": "WT PfMDH; Dose 0.0025 M", "result": "0.01337 and 0.01172 and 0.009871"},
      {"measurement": "Response (Delta Abs[340 nm]/min)", "setting": "WT PfMDH; Dose 1.00E-06 M", "result": "4.59E-02 Delta Abs[340 nm]/min and 4.67E-02 Delta Abs[340 nm]/min and 4.80E-02 Delta Abs[340 nm]/min"},
      {"measurement": "Response (Delta Abs[340 nm]/min)", "setting": "WT PfMDH; Dose 1.28E-03 M", "result": "1.90E-02 Delta Abs[340 nm]/min and 2.59E-02 Delta Abs[340 nm]/min and 1.94E-02 Delta Abs[340 nm]/min"},
      {"measurement": "Response (Delta Abs[340 nm]/min)", "setting": "WT PfMDH; Dose 1.79E-03 M", "result": "1.09E-02 Delta Abs[340 nm]/min and 1.20E-02 Delta Abs[340 nm]/min and 1.79E-02 Delta Abs[340 nm]/min"},
      {"measurement": "Response (Delta Abs[340 nm]/min)", "setting": "WT PfMDH; Dose 2.37E-04 M", "result": "3.43E-02 Delta Abs[340 nm]/min and 2.99E-02 Delta Abs[340 nm]/min and 2.50E-02 Delta Abs[340 nm]/min"},
      {"measurement": "Response (Delta Abs[340 nm]/min)", "setting": "WT PfMDH; Dose 2.50E-03 M", "result": "1.34E-02 Delta Abs[340 nm]/min and 1.17E-02 Delta Abs[340 nm]/min and 9.87E-03 Delta Abs[340 nm]/min"},
      {"measurement": "Response (Delta Abs[340 nm]/min)", "setting": "WT PfMDH; Dose 3.32E-04 M", "result": "3.31E-02 Delta Abs[340 nm]/min and 3.28E-02 Delta Abs[340 nm]/min and 2.96E-02 Delta Abs[340 nm]/min"},
      {"measurement": "Response (Delta Abs[340 nm]/min)", "setting": "WT PfMDH; Dose 4.65E-04 M", "result": "3.18E-02 Delta Abs[340 nm]/min and 2.95E-02 Delta Abs[340 nm]/min and 2.57E-02 Delta Abs[340 nm]/min"},
      {"measurement": "Response (Delta Abs[340 nm]/min)", "setting": "WT PfMDH; Dose 6.51E-04 M", "result": "2.87E-02 Delta Abs[340 nm]/min and 2.68E-02 Delta Abs[340 nm]/min and 2.89E-02 Delta Abs[340 nm]/min"},
      {"measurement": "Response (Delta Abs[340 nm]/min)", "setting": "WT PfMDH; Dose 9.11E-04 M", "result": "2.98E-02 Delta Abs[340 nm]/min and 2.62E-02 Delta Abs[340 nm]/min and 2.46E-02 Delta Abs[340 nm]/min"},
      {"measurement": "LogIC50 (best-fit value)", "setting": "WT PfMDH; log(inhibitor) vs. normalized response, variable slope", "result": "-2.934 and -2.922"},
      {"measurement": "IC50", "setting": "WT PfMDH; log(inhibitor) vs. normalized response, variable slope, read-out: IC50 (best-fit value)", "result": "1160 µM and 1200 µM"}
    ]}
  ]
}
